Experimental data taken from PubChem BioAssay AID449750 (Broad Institute, 2010).
Active and inactive are the calls of the source. The rule behind the calls is not given here.

Test: non-covalent RecA intein splicing inhibitors, dose response, biochemical, cell-free, fluorescence, secondary screen (AID 449750)

Compound	AC50
O=C(C(=C1N(Cc2ccc(Cl)nc2)CCN1Cc1ccc(Cl)nc1)[N+](=O)[O-])C(Cl)Cl	> 38 µM (inactive)
O=C(CCNc1cccc(F)c1)c1cccc([N+](=O)[O-])c1	> 38 µM (inactive)
CCn1c(Cl)c(C=O)s/c1=N\S(=O)(=O)c1ccccc1	2.44 µM
CC(OC(=O)c1cc(O)c2ccccc2c1O)C(=O)Nc1ccc(C(N)=O)cc1 (stereo unspecified)	10.1 µM
Cc1ccc(S(=O)(=O)/N=C2\C=C(Nc3cccc(C(=O)O)c3)C(=O)c3ccccc32)c(C)c1	> 38 µM (inactive)
Cc1ccc(-n2nnnc2CCl)cc1	24 µM
O=c1cc(-c2ccc(Cl)cc2)[nH][nH]1	14.2 µM
CCOC(=O)N1C(=O)[C@](c2ccc(Cl)cc2)(C(C)C)N1C(=O)OCC	1.75 µM
Cc1c([N+](=O)[O-])cnc(Sc2ccccc2)c1[N+](=O)[O-]	1.23 µM
O=C(CN(c1cccc(Br)c1)S(=O)(=O)c1ccccc1)N/N=C/c1cc([N+](=O)[O-])ccc1O	> 38 µM (inactive)
COc1ccccc1NC(=O)c1cnc(SCC(=O)NCC2CCCO2)n(C)c1=O (stereo unspecified)	> 38 µM (inactive)
O=C(N/N=C/c1cc(Cl)cc([N+](=O)[O-])c1O)c1ccccc1NS(=O)(=O)c1cccs1	22.6 µM
Cc1c(-c2nn(C)c(=O)c3ccccc23)oc2ccc(F)cc2c1=O	3 µM
C=CCNC1=C(Cl)C(=O)c2ccccc2C1=O	18.4 µM
CC(C)(C)c1cc[n+](C2=C([O-])c3ccccc3C(=O)/C2=N\S(=O)(=O)c2cccs2)cc1	8.96 µM
Cc1cc(C)c(C(CC(=O)c2cccs2)C(C#N)C#N)c(C)c1 (stereo unspecified)	38.8 µM
CCOc1cc(/C=C2/SC(=S)N(Cc3ccccc3)C2=O)ccc1O	> 38 µM (inactive)
Cc1cccc(N(Cc2ccccc2)C(=O)CCl)c1	2.06 µM
CCOC(=O)CC1=NN(c2ccccc2)C(=O)C1	36 µM
FC(F)(F)c1ccc2c(c1)N(CCCN1CCN(CCCl)CC1)c1ccccc1S2	2.54 µM
CCOc1ccc(C2C(C#N)=C(N)Oc3n[nH]c(C)c32)cc1OC(=O)C1CC1 (stereo unspecified)	> 38 µM (inactive)
COCc1[nH]nc2c1C(c1ccc(OC)c(OC)c1)C(C#N)=C(N)O2 (stereo unspecified)	> 38 µM (inactive)

Compound	AC50
O=C1C=C(Nc2ccccc2O)c2ccccc2C1=O	> 38 µM (inactive)
C/C(CC(=O)Nc1ccccn1)=N\NC(=O)Cc1cccc2ccccc12	25.6 µM
O=C(CCl)Nc1cc(-c2ccccc2)nn1-c1ccccc1	9.05 µM
Cc1nnc(N/N=C/c2ccccc2O)n1N	21.8 µM
O=[N+]([O-])C(/C=C(\Cl)[N+](=O)[O-])=C1N(Cc2ccc(Cl)nc2)CCN1Cc1ccc(Cl)nc1	> 38 µM (inactive)
CC(=O)c1ccc(OC(=O)c2cccs2)cc1	> 38 µM (inactive)
CCCn1c(CC)nc([N+](=O)[O-])c1S(=O)(=O)c1ccccc1	> 38 µM (inactive)
CCc1[nH]nc2c1C(c1cccnc1)C(C#N)=C(N)O2 (stereo unspecified)	> 38 µM (inactive)
COC(=O)CCS(=O)(=O)c1nc(-c2ccccc2)cc(C(F)(F)F)n1	> 38 µM (inactive)
CCCc1[nH]nc2c1C(c1ccoc1)C(C#N)=C(N)O2 (stereo unspecified)	> 38 µM (inactive)
O=C(O)CC1S/C(=N/N=C/c2ccc(-c3ccccc3[N+](=O)[O-])o2)NC1=O (stereo unspecified)	9.4 µM
Cc1ccc(N2C(=O)C(Cl)=C(NCCO)C2=O)c(C)c1	> 38 µM (inactive)
Cc1ccc(C)c(-c2ccc(=O)n(Cc3cccc(Br)c3)n2)c1	16.7 µM
CCOc1ccccc1Oc1coc2cc(OC(=O)c3ccco3)ccc2c1=O	> 38 µM (inactive)
COc1ccc2ccc3c(c2c1)N=C[C@]1(O3)N(C)c2ccccc2C1(C)C	> 38 µM (inactive)
C/C(CC(=O)Nc1cc(C)ccn1)=N\NC(=O)c1ccncc1	37.4 µM
COc1ccc2nc3cccc(OC)c3nc2c1	16.1 µM
Cc1ccc(SCc2[nH]nc3c2C(c2ccc(C)o2)C(C#N)=C(N)O3)cc1 (stereo unspecified)	> 38 µM (inactive)
Cc1cccc(Cn2nnc3c2C(=O)c2ccccc2C3=O)c1	28.7 µM
O=C1C(C2=C(O)c3ccccc3C2=O)=Nc2ccccc21	2.98 µM
CC1=NN(c2ccccc2)C(=O)/C1=C/c1cccs1	9.94 µM
CC(C)CC1C(C#N)=C(N)Oc2n[nH]c(-c3ccccc3)c21 (stereo unspecified)	23.1 µM

Compound	AC50
CN(C)c1ccc2nsnc2c1[N+](=O)[O-]	> 38 µM (inactive)
O=c1[nH]c(Nc2ccccc2)cc2cc(Br)ccc12	7 µM
COc1cccc(NC(=O)c2nc(S(C)(=O)=O)ncc2Cl)c1	> 38 µM (inactive)
O=C(O)c1ccc(NC2=C(n3nnc4ccccc43)C(=O)c3ccccc3C2=O)cc1	3.84 µM
O=C(CCl)Nc1sccc1C(=O)c1ccccc1	14 µM
CS(=O)(=O)C1=NSC2=NC(=O)/C(=C\c3ccc(OC(=O)c4ccco4)cc3)C(=N)N21	> 38 µM (inactive)
N#CCCn1[nH]c(-c2ccccc2)cc1=O	8.16 µM
COc1cc(/C=C2\C(=O)N(CCC#N)N=C2C)ccc1OCC(=O)Nc1ccccc1	8.37 µM
CN(CC(=O)Nc1ccc(N2CCOCC2)cc1)CC(=O)Nc1cccc(C#N)c1	> 38 µM (inactive)
CCOC(=O)c1nn(-c2ccccc2C)c(=O)c2c(N)scc12	> 38 µM (inactive)
CC(C)c1[nH]nc2c1C(c1ccco1)C(C#N)=C(N)O2 (stereo unspecified)	> 38 µM (inactive)
O=[N+]([O-])c1cc([N+](=O)[O-])c2oc(-c3ccccc3)c(Br)c2c1O	2.04 µM
O=C(CSc1ncnc2c1nnn2Cc1ccccc1F)N1CCN(c2ccccc2)CC1	> 38 µM (inactive)
CC(C)(C)c1[nH]nc2c1C(Cc1ccccc1)C(C#N)=C(N)O2 (stereo unspecified)	> 38 µM (inactive)
COc1ccc(/C=C/C(=O)c2ccc(O)cc2)cc1COc1ccc(F)cc1	> 38 µM (inactive)
CN(C)c1ccc(C(=O)n2nnc3ccccc32)cc1	> 38 µM (inactive)
O=C1C(Cl)=C(N2CCCCC2)C(=O)C(Cl)=C1c1cnc(N2CCCCC2)s1	> 38 µM (inactive)
N#CC1=C(N)N(c2ccccc2)C(c2cccc([N+](=O)[O-])c2)C1(C#N)C#N (stereo unspecified)	> 38 µM (inactive)
COC(=O)c1ccccc1S(=O)(=O)N1CCC(NC(=O)c2ccccc2)CC1	> 38 µM (inactive)
O=C1NCCCC2c3c(cc(Br)c(O)c3Br)OC12N1CCCCC1 (stereo unspecified)	> 38 µM (inactive)
CCOc1cc(/C=C(/C#N)C(=O)Nc2ccc(O)cc2)cc(Br)c1O	> 38 µM (inactive)
CC1CC(C)CN(C(=O)c2ccc3c(c2)N(Cc2ccccc2)CCS3)C1 (stereo unspecified)	14 µM

Compound	AC50
Cc1cc(C(=O)CN2C(=O)c3ccccc3C2=O)c(C)n1C1CC1	> 38 µM (inactive)
CCOc1ccccc1C1C(C#N)=C(N)Nc2onc(-c3ccccc3)c21 (stereo unspecified)	33.4 µM
O=[N+]([O-])c1c(NCc2ccco2)ccc2nonc12	> 38 µM (inactive)
C=CCn1c(NC(=O)c2ccc(Br)o2)c(S(=O)(=O)c2ccccc2)c2nc3ccccc3nc21	> 38 µM (inactive)
CCOC(=O)N/N=C\c1ccc(OC(=O)c2ccco2)cc1	> 38 µM (inactive)
COc1ccc(C(C[N+](=O)[O-])c2c(C)[nH]n(-c3ccccc3)c2=O)cc1 (stereo unspecified)	2.8 µM
Cc1noc(C)c1COC(=O)Cc1ccc(Br)cc1	> 38 µM (inactive)
O=C(CCl)N(CCc1ccccc1)CCc1ccccc1	3.25 µM
CC1(C)C=C2C(=NN(c3ccccc3)C(N)=C2C#N)CO1	3.43 µM
CCOc1ccc2c(c1)C(NC(C)=O)C(=O)N2CCN1CCOCC1 (stereo unspecified)	34.2 µM
CCOC(=O)C1=C(O)c2ccccc2C(=O)/C1=C\c1ccc(CC)cc1	7.05 µM
CC(=O)N1CC2(c3ccccc3)CN(C(C)=O)CC(c3ccccc3)(C1)C2=O	> 38 µM (inactive)
CC1=NN(c2ccccc2)C(=O)/C1=C/c1cccc(C)c1	4.14 µM
CCCc1[nH]nc2c1C(c1ccc(OC(=O)c3ccco3)cc1)C(C#N)=C(N)O2 (stereo unspecified)	> 38 µM (inactive)
O=C(Cc1ccccc1)NC1(O)C(=O)c2ccccc2C1=O	7.01 µM
O=c1[nH]c(N2CCOCC2)cc2ccccc12	> 38 µM (inactive)
Cc1cc(C)c(S(C)(=O)=O)c(Oc2cccc(C(F)(F)F)c2)n1	> 38 µM (inactive)
O=C1C=C(NCc2ccccc2)c2ccccc2C1=O	5.91 µM
Cn1c(/N=C/c2c(O)ccc3ccccc23)nc2ccccc21	10.6 µM
O=C1NC(c2ccc(-c3ccccc3[N+](=O)[O-])o2)C(C(=O)c2ccc(Cl)cc2)C(O)(C(F)(F)F)N1 (stereo unspecified)	17 µM
O=C1/C(=C\c2cc([N+](=O)[O-])ccc2O)SC(=S)N1Cc1ccc(Cl)cc1	13.8 µM
CN1CCc2nc(SCC(=O)Nc3ccc(F)cc3)c(C#N)cc2C1	> 38 µM (inactive)

Compound	AC50
Cc1nc2c(=O)n(C)c(=O)n(C)c2nc1Cl	> 38 µM (inactive)
CN(CCO)c1cc(Sc2nc3ccccc3s2)c2nonc2c1[N+](=O)[O-]	7.53 µM
Cc1ccccc1NC(=O)C(=Cc1ccc(C(=O)O)cc1)C(=O)Nc1ccccc1C	> 38 µM (inactive)
COc1cccc(N(C(=O)CCl)C(C(=O)NCCc2ccccc2)c2cccs2)c1 (stereo unspecified)	1.29 µM
Cc1ccc(S(=O)(=O)NCC2CCC(C(=O)NCCCN3CCOCC3)CC2)cc1 (stereo unspecified)	> 38 µM (inactive)
COc1ccc(C(CCN(Cc2ccc(OC)c(OC)c2)C(=O)CCl)c2ccccc2)cc1 (stereo unspecified)	0.613 µM
CCOC(=O)c1nc(C)n(-c2ccc(Cl)cc2)n1	> 38 µM (inactive)
c1cc2cn[nH]c2cc1NC1CCCCCC1	36.2 µM
Cc1nn(-c2ccccc2)c2c1C(c1ccco1)C(C#N)=C(N)O2 (stereo unspecified)	14 µM
Oc1[nH]c2ccc(Br)cc2c1N=NC(=S)N1CCOCC1	> 38 µM (inactive)
Cc1ccc(NC(=O)c2sc3ncnc(N4CCN(c5ccccn5)CC4)c3c2C)c(C)c1	> 38 µM (inactive)
N#CC1=C(N)Oc2n[nH]c(-c3cccs3)c2C1c1cccs1 (stereo unspecified)	9.22 µM
COc1cc(C(=O)CSc2nnc(-c3ccc(O)cc3)n2CC2CCCO2)ccc1NC(C)=O (stereo unspecified)	> 38 µM (inactive)
Cc1ccccc1N1C(=O)c2ccccc2C1Nc1cccnc1 (stereo unspecified)	> 38 µM (inactive)
CSc1nnc(NC(=O)c2nc(S(=O)(=O)Cc3ccccc3)ncc2Cl)s1	> 38 µM (inactive)
Cc1ccc(-c2noc(-c3ccccc3C(=O)N3CCOCC3)n2)cc1	> 38 µM (inactive)
Cc1cc(N/N=C/c2ccc(O)c(C)c2O)nc(-c2ccccc2O)n1	> 38 µM (inactive)
O=C(Oc1ccc(-n2cnnn2)cc1)c1ccco1	> 38 µM (inactive)
